According to ChEMBL document CHEMBL1201862, “PubChem BioAssay data set” (2004):
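Exposure lasted 48 hours, with cells grown in 96-well plates and compounds tested at five concentrations. GI50: concentration for 50% inhibition of growth.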 Activity calls are given as the source filed them. Rule as the data show it: active = GI50 up to about 1.1 µM and inactive = higher.

Key:
Experiment in all cases: growth of human tumour cells (NCI), 48 h
[1] = system: HCT-116
[2] = system: HCT-15
[3] = system: Hs-578T
[4] = system: KM12
[5] = system: M14
[6] = system: MDA-MB-231
[7] = system: NCI-H226
[8] = system: NCI-H23
[9] = system: NCI/ADR-RES
[10] = system: OVCAR-4
[11] = system: SF-268
[12] = system: SF-295
[13] = system: SF-539
[14] = system: SK-MEL-5
[15] = system: SN12C
[16] = system: SNB-75
[17] = system: MOLT-4
[18] = system: SR
[19] = system: BT-549

Structure (SMILES) | GI50 [1] | GI50 [2] | GI50 [3] | GI50 [4] | GI50 [5] | GI50 [6] | GI50 [7] | GI50 [8] | GI50 [9] | GI50 [10] | GI50 [11] | GI50 [12] | GI50 [13] | GI50 [14] | GI50 [15] | GI50 [16] | GI50 [17] | GI50 [18] | GI50 [19]
Cc1ccc(/C=N/Nc2ncccn2)s1 | > 100 µM (inactive) | > 100 µM | > 100 µM (inactive) | > 100 µM (inactive) | > 100 µM (inactive) | > 100 µM (inactive) | > 100 µM (inactive) | > 100 µM (inactive) | > 100 µM (inactive) | > 100 µM (inactive) | > 100 µM (inactive) | > 100 µM (inactive) | > 100 µM (inactive) | > 100 µM (inactive) | > 100 µM (inactive) | > 100 µM (inactive) |  |  | 
CCN(CCCl)c1cc(CN(C)C)cc(NC(=O)c2ccc(C(=O)Nc3cccc(CN(C)C)c3)cc2)c1 | 0.51 µM (active) | 32.4 µM | 0.23 µM (active) | 1.28 µM (inactive) | 4.27 µM (inactive) | 28.1 µM (inactive) | 3.21 µM (inactive) | 1.54 µM (inactive) | > 100 µM (inactive) | 0.607 µM (active) | 0.364 µM (active) | 1.36 µM (inactive) | 0.457 µM (active) | 0.213 µM (active) | 0.357 µM (active) | 0.695 µM (active) | 0.261 µM (active) | 0.275 µM (active) | 
O=[N+]([O-])c1ccc2c(c1)=[N+]([O-])C1(CCCCC1)[N+]=2[O-] | 17.1 µM (inactive) | 18.2 µM | 21.5 µM (inactive) | 20.5 µM (inactive) | 15.6 µM (inactive) | 18.2 µM (inactive) | 21.1 µM (inactive) | 22.9 µM (inactive) | 26.2 µM (inactive) | 11.6 µM (inactive) | 26.9 µM (inactive) | 19.8 µM (inactive) | 18.5 µM (inactive) | 15 µM (inactive) | 17.5 µM (inactive) | 17.3 µM (inactive) | 6.15 µM (inactive) | 6.43 µM (inactive) | 
CCC(=O)COc1ccc(NC(NC(=O)C(C(F)(F)F)C(F)(F)F)(C(F)(F)F)C(F)(F)F)cc1 | 20.6 µM (inactive) | 27.5 µM | 31 µM (inactive) | 36.2 µM (inactive) | 47.8 µM (inactive) | 26.5 µM (inactive) | 19.2 µM (inactive) | 36.5 µM (inactive) | 18.9 µM (inactive) | 35.6 µM (inactive) | 27.9 µM (inactive) | 66.4 µM (inactive) | 25.3 µM (inactive) | 42.3 µM (inactive) | > 10 µM (inactive) | 23.7 µM (inactive) | 14.3 µM (inactive) | 12.2 µM (inactive) | 
CC(C)=C/C=C1/CS(=O)(=O)C=C1C | > 100 µM (inactive) | 47.4 µM |  | > 100 µM (inactive) | > 100 µM (inactive) | > 100 µM (inactive) | > 100 µM (inactive) | > 100 µM (inactive) | > 100 µM (inactive) |  |  | > 100 µM (inactive) | > 100 µM (inactive) | > 100 µM (inactive) | > 100 µM (inactive) | > 100 µM (inactive) | > 100 µM (inactive) |  | 
CC12CCCCC1=[N+]([O-])C(C)(C)N2O (stereo not given) | > 100 µM (inactive) | > 100 µM | > 100 µM (inactive) | > 100 µM (inactive) | > 100 µM (inactive) | > 100 µM (inactive) | > 100 µM (inactive) | > 100 µM (inactive) | > 100 µM (inactive) | > 100 µM (inactive) | > 100 µM (inactive) | > 100 µM (inactive) | > 100 µM (inactive) | > 100 µM (inactive) | > 100 µM (inactive) |  |  | > 100 µM (inactive) | 
[N-]=[N+]=NI1OC(C(F)(F)F)(C(F)(F)F)c2ccccc21 | 17.3 µM (inactive) | 8.18 µM | 12.6 µM (inactive) | 15.6 µM (inactive) | 31.2 µM (inactive) | 15.1 µM (inactive) | 18.4 µM (inactive) | 17.8 µM (inactive) | 18.6 µM (inactive) | 15.1 µM (inactive) | 13.6 µM (inactive) | 16 µM (inactive) | 16.5 µM (inactive) | 1.24 µM (inactive) | 14.6 µM (inactive) | 13.5 µM (inactive) | 14.7 µM (inactive) | 15.6 µM (inactive) | 
CN(C)c1nc(NN)c2c(-c3ccccc3)c(-c3ccccc3)oc2n1 | > 100 µM (inactive) | > 100 µM | 45.8 µM (inactive) | > 100 µM (inactive) | > 100 µM (inactive) | > 100 µM (inactive) | > 100 µM (inactive) | > 100 µM (inactive) | > 100 µM (inactive) | 35.1 µM (inactive) | 89.1 µM (inactive) | > 100 µM (inactive) | > 100 µM (inactive) |  | > 100 µM (inactive) | 96.8 µM (inactive) | > 100 µM (inactive) | 72.3 µM (inactive) | 
COC(CN(C=O)[C@@H](c1ccc(Cl)cc1)c1cc2ccccc2o1)OC | 15.8 µM (inactive) | 17 µM | 14 µM (inactive) | 11.1 µM (inactive) | 17.3 µM (inactive) | 18.5 µM (inactive) | 18.1 µM (inactive) | 18.5 µM (inactive) | 18.3 µM (inactive) | 19.2 µM (inactive) | 15.3 µM (inactive) | 16.9 µM (inactive) | 17.9 µM (inactive) | 15.5 µM (inactive) | 17.2 µM (inactive) | 22.9 µM (inactive) | 17.8 µM (inactive) |  | 
FC1=C2C3CCC(C3)C2C1(F)F (stereo not given) | > 100 µM (inactive) | > 100 µM |  | > 100 µM (inactive) | > 100 µM (inactive) | > 100 µM (inactive) | > 100 µM (inactive) | > 100 µM (inactive) | > 100 µM (inactive) | > 100 µM (inactive) | > 100 µM (inactive) | > 100 µM (inactive) | > 100 µM (inactive) | > 100 µM (inactive) | > 100 µM (inactive) | > 100 µM (inactive) | > 100 µM (inactive) |  | 
COc1ccc(N2C(=O)CC(=O)N(C(=O)COc3ccc(OCC(=O)N4C(=O)CC(=O)N(c5ccc(OC)cc5)C4=S)cc3)C2=S)cc1 | 15.7 µM (inactive) | 48.6 µM |  | 15.6 µM (inactive) | 54.5 µM (inactive) | 30.3 µM (inactive) | 30.5 µM (inactive) | 38.1 µM (inactive) | 66.4 µM (inactive) | 27 µM (inactive) | 35.4 µM (inactive) | 36.8 µM (inactive) |  | 36.8 µM (inactive) | 43.3 µM (inactive) | 54 µM (inactive) | 32 µM (inactive) |  | 50.1 µM (inactive)
CC(=O)Oc1cc2c[n+](C)c3c4cc(OC(C)=O)c(OC(C)=O)cc4ccc3c2cc1OC(C)=O | 2.3 µM (inactive) | 2.69 µM | > 100 µM (inactive) | 5.46 µM (inactive) | 4.38 µM (inactive) |  | 1.54 µM (inactive) | 4.23 µM (inactive) | 2.54 µM (inactive) |  | 0.407 µM (active) | 4.72 µM (inactive) |  | 3.17 µM (inactive) | 3.43 µM (inactive) |  |  | 2.22 µM (inactive) | 
[N-]=[N+]=Nc1ccc2c(c1)Sc1ccccc1N2CCCCN1CCN(Cc2ccc(C(=O)c3ccc(CSCC(N)C(=O)O)cc3)cc2)CC1 (stereo not given) | 15.2 µM (inactive) | 14.2 µM |  | 1.57 µM (inactive) |  | 13.6 µM (inactive) | 13.2 µM (inactive) | 31.3 µM (inactive) |  | > 100 µM (inactive) | 27.5 µM (inactive) | 18.2 µM (inactive) |  | 13.8 µM (inactive) | 31.3 µM (inactive) |  | 15.3 µM (inactive) |  | 18 µM (inactive)
